Read-outs that look alike come from different tables or passages of the source.
Legend:
[1] = molecular target: T1, bradykinin 1 receptor (B1R) of the rat (Rattus norvegicus, UniProt P97583); test: Functional investigation on the rat bradykinin 1 receptor (B1R), Ca2+ FLIPR assay in CHO K1 rB1R cells; format: cell-based; conditions: CHO-K1, B1R antagonism rat, test substance 10 μM, read-out: B1R Ant. r [10 μM] % Inhibition
T1 construct: expressed in transfected cells; host or cells: CHO K1 cells
T1 sequence (P97583 1-337): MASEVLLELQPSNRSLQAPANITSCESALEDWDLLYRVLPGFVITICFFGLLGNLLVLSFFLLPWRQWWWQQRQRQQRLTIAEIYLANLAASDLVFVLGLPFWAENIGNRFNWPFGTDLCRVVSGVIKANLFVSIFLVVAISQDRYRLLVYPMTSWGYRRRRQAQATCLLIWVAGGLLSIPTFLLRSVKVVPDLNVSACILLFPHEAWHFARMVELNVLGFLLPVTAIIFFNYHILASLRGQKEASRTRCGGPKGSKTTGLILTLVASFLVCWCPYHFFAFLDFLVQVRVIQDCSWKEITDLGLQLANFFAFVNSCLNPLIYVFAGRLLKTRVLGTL
Method in brief: (§1)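 Stably transfected CHO K1 cells loaded with Fluo-4; FLIPR Ca2+ fluorescence peak (ex 488/em 540 nm). Compound added first (agonism vs Lys-Des-Arg9-bradykinin ≥50 nM human, Des-Arg9-bradykinin 10 μM rat), then after 10-20 min agonist at EC80; antagonism as % inhibition, IC50 from concentration series, n=2-3, N≥2.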

[2] = molecular target: T2, human μ opiate receptor (Homo sapiens, UniProt P35372); test: Affinity for the human μ opiate receptor ([3H]-naloxone displacement, CHO-K1 receptor membrane preparation, SPA); format: binding; conditions: 1.5 h, test concentration 1 μM
T2 construct: purchased PerkinElmer Life Sciences, Zaventem, Belgium RB-HOM; host or cells: CHO-K1 cells (membrane preparation)
T2 sequence (P35372 whole entry): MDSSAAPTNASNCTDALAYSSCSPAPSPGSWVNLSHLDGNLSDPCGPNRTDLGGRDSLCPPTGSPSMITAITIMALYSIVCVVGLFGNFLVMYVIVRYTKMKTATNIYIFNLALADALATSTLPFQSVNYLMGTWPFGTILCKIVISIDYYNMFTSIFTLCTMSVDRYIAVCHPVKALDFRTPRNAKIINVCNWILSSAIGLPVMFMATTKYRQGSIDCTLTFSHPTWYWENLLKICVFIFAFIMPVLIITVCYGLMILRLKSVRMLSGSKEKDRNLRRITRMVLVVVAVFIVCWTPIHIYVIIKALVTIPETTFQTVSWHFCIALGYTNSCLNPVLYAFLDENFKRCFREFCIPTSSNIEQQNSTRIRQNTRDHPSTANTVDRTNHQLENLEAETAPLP
Method in brief: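 Readout is percent displacement of [3H]-naloxone (1 nmol/l) from human μ receptor in CHO-K1 membranes, measured at 1 μmol/l compound. Incubation runs 90 minutes at room temperature with WGA-SPA beads in Tris-HCl/BSA buffer; non-specific binding is defined with 100 μmol/l naloxone.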

[3] = molecular target: T3, human bradykinin 1 receptor (B1R) (Homo sapiens, UniProt P46663); test: Functional investigation on the human bradykinin 1 receptor (B1R), Ca2+ FLIPR assay in CHO K1 hB1R cells; format: cell-based; conditions: CHO-K1, B1R antagonism human, test substance 10 μM, read-out: B1R Ant. h [10 μM] % Inhibition
T3 construct: expressed in transfected cells; host or cells: CHO K1 cells
T3 sequence (P46663 1-353): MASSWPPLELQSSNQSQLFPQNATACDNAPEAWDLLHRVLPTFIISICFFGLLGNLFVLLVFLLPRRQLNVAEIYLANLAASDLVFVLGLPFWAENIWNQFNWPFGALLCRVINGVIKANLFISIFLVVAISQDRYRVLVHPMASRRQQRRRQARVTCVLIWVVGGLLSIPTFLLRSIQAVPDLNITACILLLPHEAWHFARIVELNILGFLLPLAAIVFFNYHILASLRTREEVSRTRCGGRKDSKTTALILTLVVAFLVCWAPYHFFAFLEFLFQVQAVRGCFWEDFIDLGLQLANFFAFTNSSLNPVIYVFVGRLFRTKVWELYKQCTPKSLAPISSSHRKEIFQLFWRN
Method in brief: as §1

[4] = Table 3, to be read in the same way as Table 1, read-out: μ
[5] = % inhibition compared with the maximum achievable inhibition

| Structure (SMILES) | inhibition at 10 µM ([1]; Ca2+ FLIPR, CHO K1 rB1R cells) | inhibition at 1 µM [2, 4] | inhibition at 10 µM ([3]; Ca2+ FLIPR, CHO K1 hB1R cells) | inhibition at 1 µM ([2]; Table 2, read-out: μ receptor) | inhibition at 10 µM [1, 5] | inhibition at 10 µM [3, 5] |
| --- | --- | --- | --- | --- | --- | --- |
| COc1cc(C)c(S(=O)(=O)N2CCCC(COCC(=O)NC3CCC(C(c4ccccc4)N4CCOCC4)CC3)C2)c(C)c1 (stereo not drawn) [Example 701, 2-((1-(4-methoxy-2,6-dimethylphenylsulfonyl)piperidin-3-yl)methoxy)-N-(4-(morpholino(phenyl)methyl)cyclohexyl)acetamide] | 49% | 2% | 16% | – | – | – |
| COc1cc(C)c(S(=O)(=O)N2CCCC2COCC(=O)NC2CCC(C(CCc3ccccc3)N3CCCCC3)CC2)c(C)c1 (stereo not drawn) [Example 677, 2-((1-(4-methoxy-2,6-dimethylphenylsulfonyl)pyrrolidin-2-yl)methoxy)-N-(4-(3-phenyl-1-(piperidin-1-yl)propyl)cyclohexyl)acetamide] | 107% | 60% | 104% | – | – | – |
| COc1cc(C)c(S(=O)(=O)N2CCCC(COCC(=O)NC3CCC(C(CCc4ccccc4)N4CCOCC4)CC3)C2)c(C)c1 (stereo not drawn) [Example 678, 2-((1-(4-methoxy-2,6-dimethylphenylsulfonyl)piperidin-3-yl)methoxy)-N-(4-(1-morpholino-3-phenylpropyl)cyclohexyl)acetamide] | 73% | 6% | 45% | – | – | – |
| CN(C)C(c1ccccc1)C1CCC(NC(=O)CCOCN(C)S(=O)(=O)c2c(Cl)cc(Cl)cc2Cl)CC1 (stereo not drawn) [Example 620, N-[4-(dimethylaminophenylmethyl)-cyclohexyl]-3-{[methyl-(2,4,6-trichlorobenzenesulfonyl)-amino]-methoxy}-propionamide] | 73% | – | 103% | 92% | – | – |
| O=C(COC1CCCN(S(=O)(=O)c2c(Cl)cc(Cl)cc2Cl)C1)NCC1CCC(C(c2ccccc2)N2CCCC2)CC1 (stereo not drawn) [Example 656, N-((4-(phenyl(pyrrolidin-1-yl)methyl)cyclohexyl)methyl)-2-(1-(2,4,6-trichlorophenylsulfonyl)piperidin-3-yloxy)acetamide] | 42% | 89% | 76% | – | – | – |
| COc1cc(C)c(S(=O)(=O)N2CCCC(OCC(=O)NC3CCC(C(c4ccccc4)N4CCOCC4)CC3)C2)c(C)c1 (stereo not drawn) [Example 693, 2-(1-(4-methoxy-2,6-dimethylphenylsulfonyl)piperidin-3-yloxy)-N-(4-(morpholino(phenyl)methyl)cyclohexyl)acetamide] | 50% | 9% | 26% | – | – | – |
| COc1cc(C)c(S(=O)(=O)N2CCC(OCC(=O)NCC3CCC(C(c4ccccc4)N4CCCC4)CC3)C2)c(C)c1 (stereo not drawn) [Example 645, 2-(1-(4-methoxy-2,6-dimethylphenylsulfonyl)pyrrolidin-3-yloxy)-N-((4-(phenyl(pyrrolidin-1-yl)methyl)cyclohexyl)methyl)acetamide] | 100% | 38% | 101% | – | – | – |
| O=C(COC1CCCN(S(=O)(=O)c2c(Cl)cc(Cl)cc2Cl)C1)NCC1CCC(C(CCc2ccccc2)N2CCOCC2)CC1 (stereo not drawn) [Example 747, N-((4-(1-morpholino-3-phenylpropyl)cyclohexyl)methyl)-2-(1-(2,4,6-trichlorophenylsulfonyl)piperidin-3-yloxy)acetamide] | 32% | 23% | 24% | – | – | – |
| COc1cc(C)c(S(=O)(=O)N2CCC(OCC(=O)NCC3CCC(C(c4ccccc4)N4CCOCC4)CC3)C2)c(C)c1 (stereo not drawn) [Example 724, 2-(1-(4-methoxy-2,6-dimethylphenylsulfonyl)pyrrolidin-3-yloxy)-N-((4-(morpholino(phenyl)methyl)cyclohexyl)methyl)acetamide] | 50% | 8% | 55% | – | – | – |
| COc1cc(C)c(S(=O)(=O)N2CCCCC2COCC(=O)NCC2CCC(C(c3ccccc3)N3CCOCC3)CC2)c(C)c1 (stereo not drawn) [Example 711, 2-((1-(4-methoxy-2,6-dimethylphenylsulfonyl)piperidin-2-yl)methoxy)-N-((4-(morpholino(phenyl)methyl)cyclohexyl)methyl)acetamide] | 103% | 33% | 86% | – | – | – |
| O=C(COCC1CCCCN1S(=O)(=O)c1c(Cl)cc(Cl)cc1Cl)NC1CCC(C(c2ccccc2)N2CCOCC2)CC1 (stereo not drawn) [Example 700, N-(4-(morpholino(phenyl)methyl)cyclohexyl)-2-((1-(2,4,6-trichlorophenylsulfonyl)piperidin-2-yl)methoxy)acetamide] | 89% | 27% | 38% | – | – | – |
| COc1cc(C)c(S(=O)(=O)N(C)CCOCC(=O)NC2CCC(C(c3ccccc3)N3CCCC3)CC2)c(C)c1 (stereo not drawn) [Example 628, 2-(2-(4-methoxy-N,2,6-trimethylphenylsulfonamido)ethoxy)-N-(4-(phenyl(pyrrolidin-1-yl)methyl)cyclohexyl)acetamide] | 89% | 36% | 105% | – | – | – |
| COc1cc(C)c(S(=O)(=O)N2CCCC(COCC(=O)NC3CCC(C(CCc4ccccc4)N4CCCCC4)CC3)C2)c(C)c1 (stereo not drawn) [Example 740, 2-((1-(4-methoxy-2,6-dimethylphenylsulfonyl)piperidin-3-yl)methoxy)-N-(4-(3-phenyl-1-(piperidin-1-yl)propyl)cyclohexyl)acetamide] | 70% | 15% | 79% | – | – | – |
| CN1CCN(C(c2ccccc2)C2CCC(NC(=O)COC3CCCN(S(=O)(=O)c4c(Cl)cc(Cl)cc4Cl)C3)CC2)CC1 (stereo not drawn) [Example 692, N-(4-((4-methylpiperazin-1-yl)(phenyl)methyl)cyclohexyl)-2-(1-(2,4,6-trichlorophenylsulfonyl)piperidin-3-yloxy)acetamide] | 41% | 65% | 78% | – | – | – |
| CN(CCOCC(=O)NCC1CCC(C(CCc2ccccc2)N2CCOCC2)CC1)S(=O)(=O)c1ccc(Cl)cc1Cl (stereo not drawn) [Example 716, 2-(2-(2,4-dichloro-N-methylphenylsulfonamido)ethoxy)-N-((4-(1-morpholino-3-phenylpropyl)cyclohexyl)methyl)acetamide] | 31% | 13% | 59% | – | – | – |
| COc1cc(C)c(S(=O)(=O)N(C)CCOCC(=O)N2CCC(C(c3cccc(F)c3)N3CCN(C)CC3)CC2)c(C)c1 (stereo not drawn) [Example 799, N-(2-(2-(4-((3-fluorophenyl)(4-methylpiperazin-1-yl)methyl)piperidin-1-yl)-2-oxoethoxy)ethyl)-4-methoxy-N,2,6-trimethylbenzenesulfonamide] | – | 16% | – | – | 100% | 110% |
| COc1cc(C)c(S(=O)(=O)N2CCC(OCC(=O)NC3CCC(C(c4ccccc4)N4CCOCC4)CC3)C2)c(C)c1 (stereo not drawn) [Example 687, 2-(1-(4-methoxy-2,6-dimethylphenylsulfonyl)pyrrolidin-3-yloxy)-N-(4-(morpholino(phenyl)methyl)cyclohexyl)acetamide] | 88% | 6% | 48% | – | – | – |
| COc1cc(C)c(S(=O)(=O)N2CCC(OCC(=O)NC3CCC(C(CCc4ccccc4)N4CCCCC4)CC3)C2)c(C)c1 (stereo not drawn) [Example 669, 2-(1-(4-methoxy-2,6-dimethylphenylsulfonyl)pyrrolidin-3-yloxy)-N-(4-(3-phenyl-1-(piperidin-1-yl)propyl)cyclohexyl)acetamide] | 95% | 20% | 103% | – | – | – |
| COc1cc(C)c(S(=O)(=O)N2CCCCC2COCC(=O)N2CCC(C(c3ccc(F)cc3)N3CCN(C)CC3)CC2)c(C)c1 (stereo not drawn) [Example 805, 1-(4-((4-fluorophenyl)(4-methylpiperazin-1-yl)methyl)piperidin-1-yl)-2-((1-(4-methoxy-2,6-dimethylphenylsulfonyl)piperidin-2-yl)methoxy)ethanone] | – | 4% | – | – | 99% | 103% |
